Calls of active or inactive are those of the source. No cut-off for these calls is given here.
Legend:
[1] = test system: Human immunodeficiency virus 1; test: Antiviral activity against HIV1 expressing protease L10F/M46M,I/Q61Q mutant infected in human MT4 cells selected at 1 uM of GRL-396 by MTT assay; assay type: functional, organism-based; details: Human immunodeficiency virus 1, MT4
[2] = test system: Human immunodeficiency virus 1; test: Antiviral activity against HIV1 expressing protease L10I/L24I/M46I/V82I/I84V mutant infected in human MT4 cells selected after 50 passages of GRL-216 by MTT assay; assay type: functional, organism-based; details: Human immunodeficiency virus 1, MT4
[3] = test system: Human immunodeficiency virus 1; test: Antiviral activity against multidrug-resistant HIV1 isolate MM containing L10I, K43T, M46L, I54V, L63P, A71V, V82A, L90M, and Q92K mutant infected in human PHA-PBMC cells by p24 Gag protein production inhibition assay; details: Human immunodeficiency virus 1, isolate MM
[4] = test system: Human immunodeficiency virus 2; test: Antiviral activity against HIV2 EHO infected in human MT2 cells by MTT assay; assay type: functional, organism-based; details: Human immunodeficiency virus 2, EHO
[5] = test system: Human immunodeficiency virus 1; test: Antiviral activity against HIV1 expressing protease L10F/M46I/T91S mutant infected in human MT4 cells selected at 1 uM of GRL-246 by MTT assay; assay type: functional, organism-based; details: Human immunodeficiency virus 1, MT4
[6] = test system: Human immunodeficiency virus 1; test: Antiviral activity against HIV1 expressing protease L10I/G48V/I54V/A71V/I84V/L90M mutant infected in human MT4 cells selected at 5 uM of saquinavir by p24 Gag protein production inhibition assay; details: Human immunodeficiency virus 1, MT4
[7] = test system: Human immunodeficiency virus 1; test: Antiviral activity against HIV1 expressing protease L23I/E34Q/K43I/M46I/I50L/G51A/L63P/A71V/V82A/T91A mutant infected in human MT4 cells selected at 5 uM of atazanavir by p24 Gag protein production inhibition assay; details: Human immunodeficiency virus 1, MT4
[8] = test system: Human immunodeficiency virus 1; test: Antiviral activity against HIV1 expressing protease L10F/D30N/K45I/A71V/T74S mutant infected in human MT4 cells selected at 5 uM of nelfinavir by MTT assay; assay type: functional, organism-based; details: Human immunodeficiency virus 1, MT4
[9] = test system: Human immunodeficiency virus 1; test: Antiviral activity against HIV1 expressing protease L10F/M46I/I50V/A71V/I84V/L90M mutant infected in human MT4 cells selected at 5 uM of amprenavir by p24 Gag protein production inhibition assay; details: Human immunodeficiency virus 1, MT4
[10] = test system: Human immunodeficiency virus 1; test: Antiviral activity against HIV1 LAI infected in human MT2 cells by MTT assay; assay type: functional, organism-based; details: Human immunodeficiency virus 1, LAI
[11] = test system: Human immunodeficiency virus 1; test: Antiviral activity against HIV1 expressing protease L10F/M46L/I50V/A71Vmutant infected in human MT4 cells selected at 1 uM of GRL-286 by MTT assay; assay type: functional, organism-based; details: Human immunodeficiency virus 1, MT4
[12] = test system: Human immunodeficiency virus 2; test: Antiviral activity against HIV2 ROD infected in human MT2 cells by MTT assay; assay type: functional, organism-based; details: Human immunodeficiency virus 2, ISOLATE ROD
[13] = test system: Human immunodeficiency virus 1; test: Antiviral activity against multidrug-resistant HIV1 isolate TM containing L10I, K14R, R41K, M46L, I54V, L63P, A71V, V82A, L90M, and I93L mutant infected in human PHA-PBMC cells by p24 Gag protein production inhibition assay; details: Human immunodeficiency virus 1, isolate TM
[14] = test system: Human immunodeficiency virus 1; test: Antiviral activity against multidrug-resistant HIV1 isolate C containing protease L10I, I15V, K20R, L24I, M36I, M46L, I54V, I62V, L63P, K70Q, V82A, and L89M mutant infected in human PHA-PBMC cells by p24 Gag protein production inhibition assay; details: Human immunodeficiency virus 1, isolate C
[15] = test system: Human immunodeficiency virus 1; test: Antiviral activity against wild type HIV1 NL4-3 infected in human MT4 cells by p24 Gag protein production inhibition assay; details: Human immunodeficiency virus 1, NL4-3, MT4
[16] = test system: Human immunodeficiency virus 1; test: Antiviral activity against wild type HIV1 ERS104 containing protease L63P mutant infected in human PHA-PBMC cells by p24 Gag protein production inhibition assay; details: Human immunodeficiency virus 1, ERS104, PBMC
[17] = test system: Human immunodeficiency virus 1; test: Antiviral activity against HIV1 expressing protease L10F/M46I/I54V/V82A mutant infected in human MT4 cells selected at 5 uM of Lopinavir by p24 Gag protein production inhibition assay; details: Human immunodeficiency virus 1, MT4
[18] = test system: Human immunodeficiency virus 1; test: Antiviral activity against multidrug-resistant HIV1 isolate JSL containing L10I, L24I, I33F, E35D, M36I, N37S, M46L, I54V, R57K, I62V, L63P, A71V, G73S, and V82A mutant infected in human PHA-PBMC cells by p24 Gag protein production inhibition assay; details: Human immunodeficiency virus 1, isolate JSL
[19] = test system: Human immunodeficiency virus 1; test: Antiviral activity against multidrug-resistant HIV1 isolate B containing protease L10I, K14R, L33I, M36I,M46I, F53I, K55R, I62V, L63P, A71V, G73S, V82A, L90M, and I93L mutant infected in human PHA-PBMC cells by p24 Gag protein production inhibition assay; details: Human immunodeficiency virus 1, isolate B
[20] = Cytotoxicity against human MT2 cells after 7 days by MTT assay; assay type: cell-based
[21] = test system: Human immunodeficiency virus 1; test: Antiviral activity against HIV1 NL4-3 infected in human MT4 cells after 50 passages by MTT assay; assay type: functional, organism-based
[22] = test system: Human immunodeficiency virus 1; test: Antiviral activity against HIV1 NL4-3 infected in human MT4 cells at 1 uM after 33 passages by MTT assay; assay type: functional, organism-based
[23] = Selectivity ratio of CC50 for human MT2 cells to EC50 for HIV1 LAI infected human MT2 cells; assay type: ADME, cell-based; details: MT2 cells (CC50) and HIV1 LAI infected MT2 cells (EC50)
[24] = test system: Human immunodeficiency virus 1; test: Antiviral activity against HIV1 NL4-3 infected in human MT4 cells at 1 uM after 20 passages by MTT assay; assay type: functional, organism-based
[25] = test system: Human immunodeficiency virus type 1 protease (Human immunodeficiency virus 1), Q72874 [L24I,V82I,I84V]; test: Inhibition of protease L24I/V82I/I84V[…] dimerization in HIV1 infected in COS7 cells at 0.1 uM by FRET based assay; assay type: cell-based; details: COS-7
[26] = test system: Human immunodeficiency virus 1; test: Antiviral activity against HIV1 NL4-3 infected in human MT4 cells at 1 uM after 37 passages by MTT assay; assay type: functional, organism-based
[27] = test system: Human immunodeficiency virus 1; test: Antiviral activity against multidrug-resistant HIV1 isolate G containing L10I, V11I, T12E, I15V, L19I,R41K, M46L, L63P, A71T, V82A, and L90M mutant infected in human PHA-PBMC cells by p24 Gag protein production inhibition assay; details: Human immunodeficiency virus 1, isolate G

Structure (SMILES): Cc1cccc(C)c1OCC(=O)N[C@@H](Cc1ccccc1)[C@@H](O)C[C@H](Cc1ccccc1)NC(=O)[C@H](C(C)C)N1CCCNC1=O [LOPINAVIR]
- EC50 [1]: 280 nM
- EC50 [2]: 190 nM
- EC50 [3]: > 1000 nM
- EC50 [4]: 35 nM
- EC50 [5]: 330 nM
- EC50 [6]: 120 nM
- EC50 [7]: > 1000 nM
- EC50 [8]: 37 nM
- EC50 [9]: > 1000 nM
- EC50 [10]: 39 nM
- EC50 [11]: > 1000 nM
- EC50 [12]: 28 nM
- EC50 [13]: > 1000 nM
- EC50 [14]: > 1000 nM
- EC50 [15]: 46 nM
- EC50 [16]: 34 nM
- EC50 [17]: > 1000 nM
- EC50 [18]: > 1000 nM
- EC50 [19]: > 1000 nM
- CC50 at 168 h [20]: > 100000 nM

Structure (SMILES): Cc1c(O)cccc1C(=O)N[C@@H](CSc1ccccc1)[C@H](O)CN1C[C@H]2CCCC[C@H]2C[C@H]1C(=O)NC(C)(C)C
- EC50 [1]: 220 nM
- EC50 [2]: 130 nM
- EC50 [5]: 290 nM
- EC50 [6]: 510 nM
- EC50 [7]: > 1000 nM
- EC50 [8]: > 1000 nM
- EC50 [9]: 300 nM
- EC50 [17]: 320 nM

Structure (SMILES): COc1ccc2c(c1)OC/C=C/CCCCN(C[C@@H](O)[C@H](Cc1ccccc1)NC(=O)O[C@H]1CO[C@H]3OCC[C@H]31)S2(=O)=O
- EC50 [1]: 520 nM
- EC50 [2]: 240 nM
- Activity [21]: inactive
- EC50 [5]: 370 nM
- Activity [22]: inactive
- EC50 [10]: 14 nM
- selectivity ratio [23]: 3200
- EC50 [11]: > 1000 nM
- Activity [24]: inactive
- inhibition [25]: Active
- Activity [26]: inactive
- CC50 at 168 h [20]: 44900 nM

Structure (SMILES): COc1ccc2c(c1)OCCCCCCCCN(C[C@@H](O)[C@H](Cc1ccccc1)NC(=O)O[C@H]1CO[C@H]3OCC[C@H]31)S2(=O)=O
- EC50 [1]: 370 nM
- EC50 [2]: 260 nM
- Activity [21]: inactive
- EC50 [5]: 420 nM
- Activity [22]: inactive
- EC50 [10]: 22 nM
- EC50 [11]: > 1000 nM
- Activity [24]: inactive
- Activity [26]: inactive
- CC50 at 168 h [20]: 33300 nM

Structure (SMILES): CC(C)(C)NC(=O)[C@@H]1CN(Cc2cccnc2)CCN1C[C@@H](O)C[C@@H](Cc1ccccc1)C(=O)N[C@H]1c2ccccc2C[C@H]1O
- EC50 [3]: > 1000 nM
- EC50 [13]: > 1000 nM
- EC50 [14]: > 1000 nM
- EC50 [16]: 43 nM
- EC50 [18]: > 1000 nM
- EC50 [19]: > 1000 nM
- EC50 [27]: 340 nM

Reference: ChEMBL document CHEMBL1649305, “Novel protease inhibitors (PIs) containing macrocyclic components and 3(R),3a(S),6a(R)-bis-tetrahydrofuranylurethane that are potent against multi-PI-resistant HIV-1 variants in vitro” (Antimicrob Agents Chemother, 2010)
